Test [1] deals with T1, hMAO-B (Homo sapiens, UniProt P27338).
T1 sequence (P27338 1-520): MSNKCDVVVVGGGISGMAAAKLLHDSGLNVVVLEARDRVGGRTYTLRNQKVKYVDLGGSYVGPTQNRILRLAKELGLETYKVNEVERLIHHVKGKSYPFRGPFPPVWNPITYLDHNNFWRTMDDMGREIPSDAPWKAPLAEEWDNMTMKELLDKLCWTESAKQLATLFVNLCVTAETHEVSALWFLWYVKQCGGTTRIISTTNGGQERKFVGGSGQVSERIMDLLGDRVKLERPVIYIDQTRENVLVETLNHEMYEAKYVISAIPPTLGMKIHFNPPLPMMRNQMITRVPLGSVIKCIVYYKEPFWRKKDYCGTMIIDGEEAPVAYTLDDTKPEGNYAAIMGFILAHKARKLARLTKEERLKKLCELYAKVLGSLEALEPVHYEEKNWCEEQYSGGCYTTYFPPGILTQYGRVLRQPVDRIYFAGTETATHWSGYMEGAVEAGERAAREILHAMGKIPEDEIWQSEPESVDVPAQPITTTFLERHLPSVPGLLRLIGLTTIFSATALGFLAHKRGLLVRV
The experiment in a line: Lineweaver-Burk plots, mode of inhibition and Ki. The class given is biochemical. The protocol: To construct Lineweaver–Burk plots, the enzyme reactions were carried out to a volume of 500 µL and the concentration of MAO-B was 0.015 mg protein/mL. All enzyme reactions and activity measurements were carried out as described above for the dialysis experiments. The first plot was constructed in the absence of inhibitor, while the remaining five plots were constructed in the presence of the following concentrations: ¼ × IC50, ½ × IC50, ¾ × IC50, 1 × IC50 and 1¼ × IC50. For each line, kynuramine was used at concentrations of 15–250 μM. The Ki value was estimated from a plot of the slopes of the Lineweaver–Burk plots versus inhibitor concentration (x-axis intercept equals –Ki).
To provide further support for the reversibility of MAO-B inhibition by compounds 4 and 37, a set of Lineweaver–Burk plots was constructed for each inhibitor at the following inhibitor concentrations: ¼ × IC50, ½ × IC50, ¾ × IC50, 1 × IC50, and 1¼ × IC50. The substrate, kynuramine, was used at 15–250 µM for each line. […] The lines of the plots intersect on the y-axis and a replot of the slopes versus inhibitor concentration yields a linear line, from which the enzyme-inhibitor dissociation constant (Ki) was estimated (Ki = −x-axis intercept).

The nature of test [2]: Phosphomolybdenum assay (PhosphoMo), total antioxidant activity. The note with it: concentration at which absorbance was 0.5.
Test [3] is described as follows: ABTS radical cation scavenging activity.
Test [4] is described as follows: Cupric ion reducing activity (CUPRAC).
A short description of test [5]: FRAP (ferric reducing antioxidant power) assay.
Test [6] in a line: Metal chelating activity on ferrous ions. The note with it: ferrozine.

For the compound `CC(=NNc1nc(-c2cccc([N+](=O)[O-])c2)cs1)c1cccs1` [Compound 4, 1-(4-(3-Nitrophenyl)thiazol-2-yl)-2-(1-(thiophen-2-yl)ethylidene)hydrazine], the Ki (in general, a measure of affinity in units of concentration, obtained from inhibition or displacement) in test [1] is 0.0026 µM. Moreover, in test [1] (Lineweaver-Burk plots), the “Mode of MAO-B inhibition” value is reported as “competitive”. The EC50 (commonly the concentration at which the effect is half-maximal) worked out at 1680 ± 90 µM in test [2], 520 ± 20 µM in test [4] and 530 ± 20 µM in test [5]. The IC50 (commonly the concentration that inhibits the measured activity by half) in test [3] is 1040 ± 10 µM; in test [6], more than 5000 µM.

For the origin of these results see paper PMC6366404, “4-(3-Nitrophenyl)thiazol-2-ylhydrazone derivatives as antioxidants and selective hMAO-B inhibitors: synthesis, biological activity and computational analysis” (Journal of Enzyme Inhibition and Medicinal Chemistry, 2019).
